Experimental findings from the supplement of paper PMC10307832 are described below.

Each structure is given as a SMILES string.

The first assay deals with EPLC-272H. The experiment in a line: relative viability (nuclei count vs DMSO), 5 days (fraction); higher = more cells survive. The note with it: first compound 2.53 µM. A digest of the protocol: (§1)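 Nuclei were stained with Hoechst during a one-step fixation (final 0.05% Triton X-100, 1% formaldehyde, 1 ug/ml Hoechst) carried out 5 days after dosing, then counted on 4× images. The cells, lung cancer lines in 1536-well plates, had been dosed by pin tool the day after seeding with one drug alone or a fixed anchor-drug dose plus five library-drug doses (not always all listed) in √10 steps. Relative viability is the nuclei count in treated wells divided by that in vehicle wells, and each value is the median of duplicate plates.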
Compound `CCCCCCCCCCCC1=C(O)C(=O)C=C(O)C1=O` [Embelin] + NC(=O)Nc1cc(-c2cccc(F)c2)sc1C(=O)N[C@H]1CCCNC1 [AZD7762] (partner 0.2 µM) gave a relative viability of 0.21.

Consider `CCCCCCCCCCCC1=C(O)C(=O)C=C(O)C1=O` [Embelin] + CC(=O)c1c(C)c2cnc(Nc3ccc(N4CCNCC4)cn3)nc2n(C2CCCC2)c1=O [Palbociclib] (partner 0.5 µM), for which the relative viability turned out to be 0.358.

The same assay, now with this note: first compound 8 µM.
Take `CCCCCCCCCCCC1=C(O)C(=O)C=C(O)C1=O` [Embelin] + N=C(N)NC(=N)NCCc1ccccc1 [Phenformin] (partner 250 µM): the relative viability stood at 0.288.

`CCCCCCCCCCCC1=C(O)C(=O)C=C(O)C1=O` [Embelin] + CCNC(=O)c1noc(-c2cc(C(C)C)c(O)cc2O)c1-c1ccc(CN2CCOCC2)cc1 [Luminespib] (partner 0.01 µM): the relative viability was determined as 0.266.

Compound `CCCCCCCCCCCC1=C(O)C(=O)C=C(O)C1=O` [Embelin] + Cc1nc(Nc2ncc(C(=O)Nc3c(C)cccc3Cl)s2)cc(N2CCN(CCO)CC2)n1 [Dasatinib] (partner 0.075 µM) came in with a relative viability of 0.277.

As for `CCCCCCCCCCCC1=C(O)C(=O)C=C(O)C1=O` [Embelin] + NC(=O)Nc1cc(-c2cccc(F)c2)sc1C(=O)N[C@H]1CCCNC1 [AZD7762] (partner 0.2 µM), the relative viability was 0.188.

For the compound `CCCCCCCCCCCC1=C(O)C(=O)C=C(O)C1=O` [Embelin] + CC(=O)c1c(C)c2cnc(Nc3ccc(N4CCNCC4)cn3)nc2n(C2CCCC2)c1=O [Palbociclib] (partner 0.5 µM), the relative viability was determined as 0.324.

A further assay concerns LOU-NH91. The assay is described as above. The note with it: first compound 0.08 µM. A digest of the protocol:
as §1
On to `CCCCCCCCCCCC1=C(O)C(=O)C=C(O)C1=O` [Embelin] + N=C(N)NC(=N)NCCc1ccccc1 [Phenformin] (partner 250 µM), for which the relative viability stood at 0.757.

With `CCCCCCCCCCCC1=C(O)C(=O)C=C(O)C1=O` [Embelin] + CCNC(=O)c1noc(-c2cc(C(C)C)c(O)cc2O)c1-c1ccc(CN2CCOCC2)cc1 [Luminespib] (partner 0.01 µM), the relative viability came out at 0.429.

In turn, `CCCCCCCCCCCC1=C(O)C(=O)C=C(O)C1=O` [Embelin] + Cc1nc(Nc2ncc(C(=O)Nc3c(C)cccc3Cl)s2)cc(N2CCN(CCO)CC2)n1 [Dasatinib] (partner 0.075 µM) had a relative viability of 0.567.

With `CCCCCCCCCCCC1=C(O)C(=O)C=C(O)C1=O` [Embelin] + NC(=O)Nc1cc(-c2cccc(F)c2)sc1C(=O)N[C@H]1CCCNC1 [AZD7762] (partner 0.2 µM), the relative viability stood at 0.795.

Compound `CCCCCCCCCCCC1=C(O)C(=O)C=C(O)C1=O` [Embelin] + CC(=O)c1c(C)c2cnc(Nc3ccc(N4CCNCC4)cn3)nc2n(C2CCCC2)c1=O [Palbociclib] (partner 0.5 µM) came in with a relative viability of 0.551.

Still in this assay, the particulars now being: first compound 0.8 µM.
On to `CCCCCCCCCCCC1=C(O)C(=O)C=C(O)C1=O` [Embelin] + N=C(N)NC(=N)NCCc1ccccc1 [Phenformin] (partner 250 µM), for which the relative viability came to 0.895.

Regarding `CCCCCCCCCCCC1=C(O)C(=O)C=C(O)C1=O` [Embelin] + CCNC(=O)c1noc(-c2cc(C(C)C)c(O)cc2O)c1-c1ccc(CN2CCOCC2)cc1 [Luminespib] (partner 0.01 µM), the relative viability came to 0.369.

`CCCCCCCCCCCC1=C(O)C(=O)C=C(O)C1=O` [Embelin] + Cc1nc(Nc2ncc(C(=O)Nc3c(C)cccc3Cl)s2)cc(N2CCN(CCO)CC2)n1 [Dasatinib] (partner 0.075 µM) displayed a relative viability of 0.624.

Take `CCCCCCCCCCCC1=C(O)C(=O)C=C(O)C1=O` [Embelin] + NC(=O)Nc1cc(-c2cccc(F)c2)sc1C(=O)N[C@H]1CCCNC1 [AZD7762] (partner 0.2 µM): the relative viability turned out to be 0.932.

The compound `CCCCCCCCCCCC1=C(O)C(=O)C=C(O)C1=O` [Embelin] + CC(=O)c1c(C)c2cnc(Nc3ccc(N4CCNCC4)cn3)nc2n(C2CCCC2)c1=O [Palbociclib] (partner 0.5 µM) had a relative viability of 0.556.

The assay is the same for the next values; noted with them: first compound 2.53 µM.
Consider `CCCCCCCCCCCC1=C(O)C(=O)C=C(O)C1=O` [Embelin] + N=C(N)NC(=N)NCCc1ccccc1 [Phenformin] (partner 250 µM), for which the relative viability is 0.566.

As to `CCCCCCCCCCCC1=C(O)C(=O)C=C(O)C1=O` [Embelin] + CCNC(=O)c1noc(-c2cc(C(C)C)c(O)cc2O)c1-c1ccc(CN2CCOCC2)cc1 [Luminespib] (partner 0.01 µM), the relative viability was 0.36.

With `CCCCCCCCCCCC1=C(O)C(=O)C=C(O)C1=O` [Embelin] + Cc1nc(Nc2ncc(C(=O)Nc3c(C)cccc3Cl)s2)cc(N2CCN(CCO)CC2)n1 [Dasatinib] (partner 0.075 µM), the relative viability is 0.561.

Take `CCCCCCCCCCCC1=C(O)C(=O)C=C(O)C1=O` [Embelin] + NC(=O)Nc1cc(-c2cccc(F)c2)sc1C(=O)N[C@H]1CCCNC1 [AZD7762] (partner 0.2 µM): the relative viability was found to be 0.779.

For `CCCCCCCCCCCC1=C(O)C(=O)C=C(O)C1=O` [Embelin] + CC(=O)c1c(C)c2cnc(Nc3ccc(N4CCNCC4)cn3)nc2n(C2CCCC2)c1=O [Palbociclib] (partner 0.5 µM), the relative viability turned out to be 0.542.

Staying with this assay, now noted: first compound 8 µM.
As for `CCCCCCCCCCCC1=C(O)C(=O)C=C(O)C1=O` [Embelin] + N=C(N)NC(=N)NCCc1ccccc1 [Phenformin] (partner 250 µM), the relative viability was determined as 0.492.

For `CCCCCCCCCCCC1=C(O)C(=O)C=C(O)C1=O` [Embelin] + CCNC(=O)c1noc(-c2cc(C(C)C)c(O)cc2O)c1-c1ccc(CN2CCOCC2)cc1 [Luminespib] (partner 0.01 µM), the relative viability was 0.299.

In the case of `CCCCCCCCCCCC1=C(O)C(=O)C=C(O)C1=O` [Embelin] + Cc1nc(Nc2ncc(C(=O)Nc3c(C)cccc3Cl)s2)cc(N2CCN(CCO)CC2)n1 [Dasatinib] (partner 0.075 µM), the relative viability worked out at 0.531.

For the compound `CCCCCCCCCCCC1=C(O)C(=O)C=C(O)C1=O` [Embelin] + NC(=O)Nc1cc(-c2cccc(F)c2)sc1C(=O)N[C@H]1CCCNC1 [AZD7762] (partner 0.2 µM), the relative viability was 0.729.

In the case of `CCCCCCCCCCCC1=C(O)C(=O)C=C(O)C1=O` [Embelin] + CC(=O)c1c(C)c2cnc(Nc3ccc(N4CCNCC4)cn3)nc2n(C2CCCC2)c1=O [Palbociclib] (partner 0.5 µM), the relative viability worked out at 0.52.
